According to patent US11633502B2, “Bone marrow-, reticuloendothelial system-, and/or lymph node-targeted radiolabeled liposomes and methods of their diagnostic and therapeutic use” (Memorial Sloan Kettering Cancer Center, priority 2016, dated 2023):

Assay: Blood cell counts of GT3 liposome treated mice after ionizing radiation
Format: in vivo, C57/B6 mice
Details: after exposure to 2 or 4 Gy
Protocol: FIGS. 28A and 28B show blood cell counts of GT3 liposome treated mice after ionization radiation. White blood cell (WBC) (FIG. 28A) and lymph (FIG. 28B) counts are shown for mice treated with 2 Gy+GT3 containing liposomes, 2 Gy, 4 Gy+GT3 containing liposomes, and 4 Gy.
C57/B6 mice were treated with GT3 containing BMT liposomes with 10 mg/kg GT3 at 24 h prior to 2 and 4 Gy. Blood cells were counted at 0, 1, 4, 6, 13 days after irradiation. […] Lymphocyte recovery is the most significant. […] This effect was not seen when GT3 was not targeted to the bone marrow.

CC(C)=CCC/C(C)=C/CC/C(C)=C/CC[C@]1(C)CCc2cc(O)c(C)c(C)c2O1 [GT3]
recovery of lymphocyte and neutrophils: not seen
